Holding throughout (assay type): functional, cell-based
The test system of one assay is A549. The assay can be described thus: Antiproliferative activity against human A549 cells assessed as reduction in cell viability by MTT assay. On the technique in general: Formazan colour is commonly taken as a measure of viable cells.
Another assay concerns PC-3. The assay can be described thus: Antiproliferative activity against human PC3 cells assessed as reduction in cell viability by MTT assay.
Another assay concerns HCT-116. The assay can be described thus: Antiproliferative activity against human HCT116 cells assessed as reduction in cell viability by MTT assay.

With `Cn1c(=O)c(=O)n(C2CCCC2)c2nc(N/N=C/c3cccc(Cl)c3Cl)ncc21`, the IC50 in the assay on A549 was found to be 39.1 µM; with PC-3, 17.2 µM; with HCT-116, 26.4 µM.

For `Cn1c(=O)c(=O)n(C2CCCC2)c2nc(N/N=C/c3ccc(O)cc3)ncc21`, the results for the half-maximal inhibitory concentration (IC50) in the assay with A549, in the assay on PC-3 and in the assay on HCT-116 were more than 100 µM, more than 100 µM and 72.5 µM, respectively.

For the molecule `COc1cc(/C=N/Nc2ncc3c(n2)n(C2CCCC2)c(=O)c(=O)n3C)cc(OC)c1OC`, the values for the concentration for half-maximal inhibition (IC50) in the assay with A549, with PC-3 and with HCT-116 were 18.3 µM, 17.5 µM and 22.9 µM, respectively.

In the case of `Cn1c(=O)c(=O)n(C2CCCC2)c2nc(N/N=C/c3ccc(Cl)cc3)ncc21`, the concentration for half-maximal inhibition (IC50) came to 6.89 µM with A549, 8.42 µM with PC-3 and 9.81 µM in the assay on HCT-116.

For `COc1ccc(/C=N/Nc2ncc3c(n2)n(C2CCCC2)c(=O)c(=O)n3C)cc1`, the IC50 was more than 100 µM in the assay with A549, 26.2 µM with PC-3 and 36.1 µM in the assay on HCT-116.

As to `Cn1c(=O)c(=O)n(C2CCCC2)c2nc(N/N=C/c3cc([N+](=O)[O-])ccc3Cl)ncc21`, the figures for the 50% inhibitory concentration (IC50) with A549, in the assay with PC-3 and in the assay with HCT-116 were 8.78 µM, 9.26 µM and 5.61 µM, respectively.

For the molecule `Cn1c(=O)c(=O)n(C2CCCC2)c2nc(N/N=C/c3ccc(C(F)(F)F)cc3)ncc21`, the IC50 in the assay with A549 amounted to 40.6 µM; with PC-3, 23.6 µM; with HCT-116, 29 µM.

Consider `Cc1cccc(/C=N/Nc2ncc3c(n2)n(C2CCCC2)c(=O)c(=O)n3C)c1`, for which the IC50 in the assay on A549 was 34.5 µM; with PC-3, 53.6 µM; in the assay with HCT-116, more than 100 µM.

Regarding `Cn1c(=O)c(=O)n(C2CCCC2)c2nc(N/N=C/c3ccccc3)ncc21`, the half-maximal inhibitory concentration (IC50) in the assay on A549 was more than 100 µM; in the assay on PC-3 it was 48.2 µM; in the assay with HCT-116, more than 100 µM.

`Cn1c(=O)c(=O)n(C2CCCC2)c2nc(N/N=C/c3ccc(F)cc3F)ncc21`: the half-maximal inhibitory concentration (IC50) was 18.3 µM in the assay with A549, 13.2 µM with PC-3 and 19.8 µM in the assay on HCT-116.

As to `Cn1c(=O)c(=O)n(C2CCCC2)c2nc(N/N=C/c3cccs3)ncc21`, the IC50 in the assay on A549 was more than 100 µM; in the assay with PC-3 it was 75.6 µM; with HCT-116 it was 52.6 µM.

Take `Cn1c(=O)c(=O)n(C2CCCC2)c2nc(N/N=C/c3cccc(O)c3)ncc21`: the values for the IC50 in the assay with A549, in the assay on PC-3 and in the assay on HCT-116 were more than 100 µM, 36.3 µM and 37.2 µM, respectively.

As for `Cn1c(=O)c(=O)n(C2CCCC2)c2nc(N/N=C/c3ccc(O)c(Br)c3)ncc21`, the IC50 with A549 was 12.8 µM; with PC-3, 11.6 µM; with HCT-116 it was 17.7 µM.

Turning to `Cc1ccc(/C=N/Nc2ncc3c(n2)n(C2CCCC2)c(=O)c(=O)n3C)cc1C`, the results for the IC50 in the assay on A549, in the assay on PC-3 and in the assay with HCT-116 were 30.2 µM, 39 µM and 62.9 µM, respectively.

In the case of `Cn1c(=O)c(=O)n(C2CCCC2)c2nc(N/N=C/c3cccc([N+](=O)[O-])c3)ncc21`, the IC50 was 12.3 µM with A549, 20.3 µM in the assay with PC-3 and 15.2 µM in the assay on HCT-116.

One may read the IC50 as the midpoint of a concentration-inhibition curve.

For the origin of these results see ChEMBL document CHEMBL4622944 (Bioorg Med Chem Lett, 2020).
